The values that follow come from patent publication US20240254129A1, “HETEROCYCLIC COMPOUNDS AND USES THEREOF” (Kumquat Biosciences Inc., priority 2021, published 2024).

Assay [1] has as its target GST-tagged K-Ras mutant / His-tagged hSOS1 (Homo sapiens, UniProt P01116). In words: HTRF assay, K-Ras mutant / SOS1 interaction. The class given is binding. The conditions noted are these: compound nos. 401-703; read-out: IC50 against mutant Kras. In a few lines:
(§1)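 Tagged proteins: GST-K-Ras (wt or mutant), His-hSOS1; labels anti-GST-Eu/anti-6His-XL665; HEPES pH 7.4 buffer with DTT, BSA, Igepal. Read ≥10 min post-mix at ex 337 nm; IC50 from ratiometric data, duplicates.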
On the technique in general: In TR-FRET formats the signal depends on donor and acceptor labels being close together.

For another assay, the target named is T1, wildtype Kras / hSOS1 (Homo sapiens, UniProt P01116).
T1 construct: made in house; host or cells: E. coli BL21 (DE3)
Briefly: HTRF assay, wildtype Kras / SOS1 interaction. The assay is classed as binding. The conditions noted are these: compound nos. 401-703; read-out: IC50 against wildtype Kras. The gist of the method: as §1

SMILES strings stand for the structures.

T1 sequence (P01116 1-188 isoform P01116-2): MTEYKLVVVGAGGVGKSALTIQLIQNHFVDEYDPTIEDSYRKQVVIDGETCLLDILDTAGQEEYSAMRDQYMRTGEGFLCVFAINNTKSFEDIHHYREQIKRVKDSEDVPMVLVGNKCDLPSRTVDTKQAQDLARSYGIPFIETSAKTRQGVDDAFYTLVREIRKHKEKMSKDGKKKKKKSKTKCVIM
Sequence of GST-tagged K-Ras mutant / His-tagged hSOS1 (P01116 whole entry G12D, form open): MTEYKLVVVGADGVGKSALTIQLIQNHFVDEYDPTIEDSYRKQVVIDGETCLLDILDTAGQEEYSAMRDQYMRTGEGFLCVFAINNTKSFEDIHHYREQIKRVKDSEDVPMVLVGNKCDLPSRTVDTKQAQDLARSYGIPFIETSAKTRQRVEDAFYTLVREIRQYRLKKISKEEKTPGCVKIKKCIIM

On to `Cc1ccc(C#N)cc1-c1c(Cl)cc2c(N3CC4CCC(C3)N4)nc(OCC34CCCN3CCC4)nc2c1F` [Compound 510, 3-(4-(3,8-diazabicyclo-[3.2.1]octan-3-yl)-6-chloro-8-fluoro-2-((tetrahydro-1H-pyrrolizin-7a(5H)-yl)meth-oxy)quinazolin-7-yl)-4-methylbenzonitrile], for which the concentration for half-maximal inhibition (IC50) (in assay [1]; at wildtype Kras / hSOS1) was above 500 nM throughout.

With `Nc1nc2c(-c3c(Cl)cc4c(N5CC6CCC(C5)NC6)nc(OC[C@@]56CCCN5C[C@H](F)C6)nc4c3F)ccc(F)c2s1` (stereo partly drawn) [Compound 511, 4-(4-(3,6-diazabicyclo-[3.2.2]nonan-3-yl)-6-chloro-8-fluoro-2-(((2R,7aS)-2-fluorotetrahydro-1H-pyrrol-izin-7a(5H)-yl)methoxy)-quinazolin-7-yl)-7-fluoro-benzo[d]thiazol-2-amine], the IC50 (in general, the point on the concentration scale where inhibition reaches its midpoint) is below 500 nM in assay [1] and above 500 nM on wildtype Kras / hSOS1.

Consider `Nc1nc2c(-c3c(Cl)cc4c(N5CC6CCCC(C5)NC6)nc(OC[C@@]56CCCN5C[C@H](F)C6)nc4c3F)ccc(F)c2s1` (stereo partly drawn) [Compound 512, 4-(4-(3,9-diazabicyclo-[3.3.2]decan-3-yl)-6-chloro-8-fluoro-2-(((2R,7aS)-2-fluorotetrahydro-1H-pyrrol-izin-7a(5H)-yl)methoxy)-quinazolin-7-yl)-7-fluoro-benzo[d]thiazol-2-amine], for which the half-maximal inhibitory concentration (IC50) is below 500 nM in assay [1] and above 500 nM at wildtype Kras / hSOS1.

As for `N#CC1COCCN(c2nc(OCC34CCCN3C[C@H](F)C4)nc3c(F)c(-c4ccc(F)c5sc(N)nc45)c(Cl)cc23)C1` (stereo partly drawn) [Compound 513, 4-(7-(2-amino-7-fluoroben-zo[d]thiazol-4-yl)-6-chloro-8-fluoro-2-(((2R)-2-fluoro-tetrahydro-1H-pyrrolizin-7a(5H)-yl)methoxy)quin-azolin-4-yl)-1,4-oxazepane-6-carbonitrile], the IC50 in assay [1] was below 500 nM; on wildtype Kras / hSOS1, above 500 nM.

Regarding `CN(C)C1CN(c2nc(N3CC4CCC(C3)N4)c3cc(CCC#N)c(-c4ccc(F)c5sc(N)nc45)c(F)c3n2)C1` [Compound 516, 3-(7-(2-amino-7-fluoroben-zo[d]thiazol-4-yl)-4-(3,8-diazabicyclo[3.2.1]octan-3-yl)-2-(3-(dimethylamino)-azetidin-1-yl)-8-fluoroquin-azolin-6-yl)propanenitrile], the half-inhibitory concentration (IC50) (in assay [1]; on wildtype Kras / hSOS1) was above 500 nM throughout.

Regarding `Nc1nc2c(-c3c(Cl)cc4c(N5CC6CCC(CO)(C5)N6)nc(OC[C@@]56CCCN5C[C@H](F)C6)nc4c3F)ccc(F)c2s1` (stereo partly drawn) [Compound 518, (3-(7-(2-amino-7-fluoroben-zo-[d]thiazol-4-yl)-6-chloro-8-fluoro-2-(((2R,7aS)-2-fluorotetrahydro-1H-pyrrol-izin-7a(5H)-yl)methoxy)-quinazolin-4-yl)-3,8-diaza-bicyclo[3.2.1]octan-1-yl)-methanol], the results for the half-maximal inhibitory concentration (IC50) (in assay [1]; on wildtype Kras / hSOS1) were below 500 nM and above 500 nM, respectively.

In the case of `Oc1cc(N2CCc3nc(OCC45CCCN4CCC5)nc(N4C[C@H]5CC[C@@H](C4)N5)c3CC2)c2ccccc2c1` [Compound 521, 4-(4-((1R,5S)-3,8-diazabicyclo[3.2.1]octan-3-yl)-2-((tetrahydro-1H-pyrrolizin-7a(5H)-yl)methoxy)-5,6,8,9-tetrahydro-7H-pyrimido[4,5-d]azepin-7-yl)naphthalen-2-ol], the concentration for half-maximal inhibition (IC50) (in assay [1]; on wildtype Kras / hSOS1) was above 500 nM throughout.

In the case of `CN(C)C/C=C/C(=O)N1CC2(CCCN(c3nc(OC[C@@]45CCCN4C[C@H](F)C5)nc4c(F)c(-c5ccc(F)c6sc(N)c(C#N)c56)c(Cl)cc34)C2)C1` [Compound 522, 2-amino-4-(6-chloro-4-(2-((E)-4-(dimethylamino)but-2-enoyl)-2,6-diazaspiro[3.5]nonan-6-yl)-8-fluoro-2-(((2R,7aS)-2-fluorotetrahydro-1H-pyrrolizin-7a(5H)-yl)methoxy)quinazolin-7-yl)-7-fluorobenzo[b]thiophene-3-carbonitrile], the IC50 in assay [1] was below 500 nM; on wildtype Kras / hSOS1, above 500 nM.

Regarding `CN(C)CC1(COc2nc(N3CC4CCC(C3)N4)c3cc(Cl)c(-c4ccc(F)c5sc(N)nc45)c(F)c3n2)CC1` [Compound 523, 4-(4-(3,8-diazabicyclo-[3.2.1]octan-3-yl)-6-chloro-2-((1-((dimethylamino)-methyl)cyclopropyl)meth-oxy)-8-fluoroquinazolin-7-yl)-7-fluorobenzo[d]thiazol-2-amine], the results for the IC50 (in assay [1]; at wildtype Kras / hSOS1) were below 500 nM and above 500 nM, respectively.

As to `COC1CCCCN(c2nc(OC[C@@H]3CCCN3C)nc3c(F)c(-c4cccc5sc(N)nc45)c(Cl)cc23)C1` (stereo partly drawn) [Compound 524, 4-(6-chloro-8-fluoro-4-(3-methoxyazepan-1-yl)-2-(((S)-1-methylpyrrolidin-2-yl)methoxy)quinazolin-7-yl)benzo[d]thiazol-2-amine], the half-maximal inhibitory concentration (IC50) in assay [1] is below 500 nM; at wildtype Kras / hSOS1 it was above 500 nM.

Turning to `Nc1nc2ccccc2n1-c1ccc2c(N3CC4CCC(C3)N4)nc(OCC34CCCN3CCC4)nc2c1F` [Compound 525, 1-(4-(3,8-diazabicyclo-[3.2.1]octan-3-yl)-8-fluoro-2-((tetrahydro-1H-pyrrol-izin-7a(5H)-yl)methoxy)-quin-azolin-7-yl)-1H-benzo-[d]imidazol-2-amine], the IC50 (in assay [1]; on wildtype Kras / hSOS1) was above 500 nM throughout.

Consider `N#Cc1c(N)sc2c(F)ccc(-c3c(Cl)cc4c(N5CCCC6(CNC6)C5)nc(OC[C@@]56CCCN5C[C@H](F)C6)nc4c3F)c12` [Compound 526, 2-amino-4-(6-chloro-8-fluoro-2-(((2R,7aS)-2-fluorotetrahydro-1H-pyrrol-izin-7a(5H)-yl)methoxy)-4-(2,6-diazaspiro[3.5]nonan-6-yl)quinazolin-7-yl)-7-fluorobenzo[b]thiophene-3-carbonitrile], for which the IC50 in assay [1] is below 500 nM; on wildtype Kras / hSOS1 it was above 500 nM.

On to `Nc1c(-c2c(Cl)cc3c(N4CC5CCC(C4)N5)nc(OCC45CCCN4CCC5)nc3c2F)cccc1C(F)(F)F` [Compound 527, 2-(4-(3,8-diazabicyclo-[3.2.1]octan-3-yl)-6-chloro-8-fluoro-2-((tetrahydro-1H-pyrrolizin-7a(5H)-yl)meth-oxy)quinazolin-7-yl)-6-(trifluoromethyl)aniline], for which the IC50 (in assay [1]; at wildtype Kras / hSOS1) was above 500 nM each time.

Take `Nc1nc2c(-c3c(Cl)cc4c(N5C[C@H]6CCNCC[C@H]6C5)nc(OC[C@@]56CCCN5C[C@H](F)C6)nc4c3F)ccc(F)c2s1` [Compound 528, 4-(6-chloro-8-fluoro-2-(((2R,7aS)-2-fluorotetra-hydro-1H-pyrrolizin-7a(5H)-yl)methoxy)-4-((3aR,8aS)-octahydropyr-rolo[3,4-d]azepin-2(1H)-yl)quinazolin-7-yl)-7-fluorobenzo[d]thiazol-2-amine]: the concentration for half-maximal inhibition (IC50) in assay [1] is below 500 nM; on wildtype Kras / hSOS1, above 500 nM.

Turning to `CN1CCCC1CCn1nc(N2CC3CCC(C2)N3)c2ccc(-c3cc(O)cc4ccccc34)c(F)c2c1=O` (stereo not drawn) [Compound 529, 4-(3,8-diazabicyclo[3.2.1]-octan-3-yl)-8-fluoro-7-(3-hydroxynaphthalen-1-yl)-2-(2-(1-methylpyrrolidin-2-yl)ethyl)phthalazin-1(2H)-one], the IC50 (in assay [1]; at wildtype Kras / hSOS1) was above 500 nM each time.

`N#Cc1n[nH]c2c(F)ccc(-c3c(Cl)cc4c(N5CC6CCC(C5)N6)nc(OC[C@@]56CCCN5C[C@H](F)C6)nc4c3F)c12` [Compound 531, 4-(4-(3,8-diazabicyclo-[3.2.1]octan-3-yl)-6-chloro-8-fluoro-2-(((2R,7aS)-2-fluorotetrahydro-1H-pyrrol-izin-7a(5H)-yl)methoxy)-quin-azolin-7-yl)-7-fluoro-1H-indazole-3-carbonitrile]: the half-inhibitory concentration (IC50) (in assay [1]; on wildtype Kras / hSOS1) was above 500 nM in each case.

Turning to `Nc1nc2c(-c3c(Cl)cc4c(N5CCCC6(CCNC6)C5)nc(OC[C@@]56CCCN5C[C@H](F)C6)nc4c3F)ccc(F)c2s1` (stereo partly drawn) [Compound 532, 4-(6-chloro-8-fluoro-2-(((2R,7aS)-2-fluorotetra-hydro-1H-pyrrolizin-7a(5H)-yl)methoxy)-4-(2,7-diaza-spiro[4.5]decan-7-yl)quin-azolin-7-yl)-7-fluorobenzo-[d]thiazol-2-amine], the IC50 in assay [1] is below 500 nM; at wildtype Kras / hSOS1 it was above 500 nM.

As to `COc1nc2c(N3CC4CCC(C3)N4)nc(OC[C@@]34CCCN3C[C@H](F)C4)nc2cc1-c1cc(O)cc2ccccc12` [Compound 533, 4-(4-(3,8-diazabicyclo-[3.2.1]octan-3-yl)-2-(((2R,7aS)-2-fluorotetra-hydro-1H-pyrrolizin-7a(5H)-yl)methoxy)-6-methoxypyrido-[3,2-d]-pyrimidin-7-yl)naphthalen-2-ol], the half-inhibitory concentration (IC50) (in assay [1]; on wildtype Kras / hSOS1) was above 500 nM throughout.

With `OC1Cc2ccccc2N(c2ccc3c(N4CCCCCC4)nc(OCC45CCCN4CCC5)nc3c2F)C1` (stereo not drawn) [Compound 534, 1-(4-(azepan-1-yl)-8-fluoro-2-((tetrahydro-1H-pyrrol-izin-7a(5H)-yl)methoxy)-quinazolin-7-yl)-1,2,3,4-tetrahydroquinolin-3-ol], the IC50 (in assay [1]; at wildtype Kras / hSOS1) was above 500 nM throughout.

Take `CN1CCC[C@H]1COc1nc(N2CCCC(C(=O)O)CC2)c2cc(Cl)c(-c3cccc4sc(N)nc34)c(F)c2n1` (stereo partly drawn) [Compound 535, 1-(7-(2-aminobenzo[d]thia-zol-4-yl)-6-chloro-8-fluoro-2-(((S)-1-methylpyrrolidin-2-yl)methoxy)quinazolin-4-yl)azepane-4-carboxylic acid]: the 50% inhibitory concentration (IC50) is below 500 nM in assay [1] and above 500 nM on wildtype Kras / hSOS1.

Regarding `Fc1c(Br)ccc2c(N3CC4CCC(C3)N4)nc(OC[C@@]34CCCN3C[C@H](F)C4)nc12` [Compound 537, 4-(3,8-diazabicyclo[3.2.1]-octan-3-yl)-7-bromo-8-fluoro-2-(((2R,7aS)-2-fluorotetrahydro-1H-pyrrol-izin-7a(5H)-yl)methoxy)-quinazoline], the half-maximal inhibitory concentration (IC50) (in assay [1]; at wildtype Kras / hSOS1) was above 500 nM in each case.
